Reference: patent publication US10112918B2, “15-oxospiramilactone derivatives, preparation method and uses thereof” (Kunming Institute of Botany, The Chinese Academy of Sciences, priority 2013, dated 2018)
Where two headings read alike, the source gives them in different places. One block for each molecule: values may come before it.

Tests used:
Type in all cases: cell-based
[1] = system: HL-60 (human promyelocytic leukemia cells); experiment: MTT inhibition of tumor cell growth, HL-60; settings: Homo sapiens
In short: (§1)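 Cells were seeded at 5000-10000 per well in DMEM or RPMI1640 with 10% FBS, adherent lines pre-cultured 12 h. Compounds were tested at 40 μM, with 5-concentration re-screening for those near 50% inhibition, in triplicate for 48 h at 37° C; MTT/SDS absorbance at 595 nm gave IC50 by Reed-Muench.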

[2] = system: SMMC-7721 (human hepatoma cells); experiment: MTT inhibition of tumor cell growth, SMMC-7721; settings: Homo sapiens
In short: as §1

[3] = system: A-549 (Human lung adenocarcinoma cells); experiment: MTT inhibition of tumor cell growth, A-549; settings: Homo sapiens
In short: as §1

[4] = system: MCF-7 (human breast cancer cells); experiment: MTT inhibition of tumor cell growth, MCF-7; settings: Homo sapiens
In short: as §1

[5] = system: SW-480 (human colon cancer cells); experiment: MTT inhibition of tumor cell growth, SW-480; settings: Homo sapiens
In short: as §1

[6] = system: Wnt signaling pathway (Top-Flash reporter gene); experiment: Top-Flash Wnt reporter gene assay in HEK293T cells with Wnt3a conditioned medium; settings: Homo sapiens, HEK-293T, 6 h, 6 h
Protocol: HEK293T cells were cultured in DMEM containing 10% fetal bovine serum (Invitrogen) at 37° C., 5% CO2. The cells were passaged every other day. The density was retained at 70˜80% during passage. L cell line (CRL-2647, purchased from the gene bank of ATCC, the US) and the control cell line (CRL-2648, purchased from ATCC, US), which stably secreted mouse Wnt3a protein, were cultured in DMEM containing 50 ug/ml G418 and 10% fetal bovine serum, at 37° C., 5% CO2. When the cells grew to a density of about 70%, the medium was replaced with DMEM containing 10% fetal bovine serum. After continuous culture for 4 days, the culture was collected and centrifuged, and the supernatant was kept so that the Wnt conditioned medium was obtained. After titration assay, the conditioned medium was quick-frozen in liquid nitrogen, and placed at −80° C. for long-term storage, so that the titer was kept unchanged.
The cells were seeded to a 48-well plate at a density of […] cells per well, and transfected 20 h later. The reagents for plasmid transfection were calculated based on the amount in each well of the 48-well plate as following: the total amount of plasmid was 125 ng/well; the plasmid was first added to a serum-free medium (25 μL/well) and mixed well; PLUS reagent (Invitrogen) was then added in an amount of 0.5 μL/well and mixed well, then stood for 15 min; Lipofectamine (Invitrogen) liposome was added in an amount of 0.5 μL/well to serum-free DMEM medium (25 μL/well), and then mixed with the solution containing the plasmid and the PLUS, and stood for 15 min. The cells were cultured in serum-free DMEM medium (100 μL/well), and the final mixture of plasmid, PLUS and Lipofectamine were added to the cells. After incubation for 3 h, the transfection was stopped by the medium containing 10% fetal bovine serum (200 μL/well).
The HEK293T cells used for activity assay of the report gene were transfected by the method as shown in 2). Activity assay of Wnt reporter gene: the amount of plasmid for transfection was 5 ng/well for TOP-flash and 5 ng/well for GFP plasmid as internal standard, with lacZ added to reach a total amount of 125 ng/well. […] After treating for 6 h, Boehringer Mannheim Luci-ferase Assay Kit was used to lyse cells (200 μL/well). 50 μL from each well was pipetted into a 96-well plate. The indensity of GFP protein in the cell lysate was measured by fluorimeter FL600 (BIO-TEK Inc. Winooski, Vt.), and taken as internal standard for cell transfection efficiency. 10 μL substrate of luciferase was then added to each well, and the activity of luciferase was measured by Micro Lumate Plus (Perkin Elmer Inc. Wellesley, Mass.) luminometer. Finally, GFP indensity was used as internal standard to calibrate the activity of luciferase, i.e. the activity of Wnt reporter gene.
Calculation of IC50 (taking the calculation of IC50 of the Wnt signaling pathway for example): background (the activity as measured in the groups treated with a conditioned medium containing DMSO only) was subtracted from the reporter gene activity as measured in the groups treated by Wnt3a conditioned medium with or without the compound to be tested at different concentrations; and the obtained value was defined as the activity of the reporter gene induced by Wnt or the residual activity of the reporter gene after adding the compound to be tested. The residual activity was normalized by the activity induced by Wnt to get the relative residual activity. Then combine with the concentrations of the compound to be tested to plot a linear graph, and a dose-effect curve was fitted based on 4-parameter logistic fit. IC50 of the Wnt signaling pathway is determined as the concentration at which the relative residual activity is 0.5.

[7] = Table 9, HEK293T, Wnt3a conditioned medium, read-out: IC50(μM), inhibitory activity on the Wnt signaling pathway
[8] = HL-60, 48 h, Table 2, derivatives having potential Michael reaction acceptor
[9] = SMMC-7721, 48 h, Table 2, derivatives having potential Michael reaction acceptor
[10] = A549, 48 h, Table 2, derivatives having potential Michael reaction acceptor
[11] = MCF7, 48 h, Table 2, derivatives having potential Michael reaction acceptor
[12] = SW480, 48 h, Table 2, derivatives having potential Michael reaction acceptor, read-out: IC50 SW-480
[13] = HL-60, 48 h, Table 1, 7-hydroxy derivatives of S-3
[14] = SMMC-7721, 48 h, Table 1, 7-hydroxy derivatives of S-3
[15] = A549, 48 h, Table 1, 7-hydroxy derivatives of S-3
[16] = MCF7, 48 h, Table 1, 7-hydroxy derivatives of S-3
[17] = SW480, 48 h, Table 1, 7-hydroxy derivatives of S-3, read-out: IC50 SW-480
[18] = Table 7 (second), derivatives modified on 7-hydroxyl of S-3, HEK293T, Wnt3a conditioned medium, read-out: IC50 (μM), inhibitory activity on the Wnt signaling pathway
[19] = SW480, 48 h, Table 6, 7-carbonyl derivatives, read-out: IC50 SW-480, 7-carbonyl derivatives
[20] = Table 8, HEK293T, Wnt3a conditioned medium, read-out: IC50 (μM), inhibitory activity on the Wnt signaling pathway
[21] = HL-60, Table 7 (first), alkaloid derivatives, 48 h
[22] = SMMC-7721, Table 7 (first), alkaloid derivatives, 48 h
[23] = A549, Table 7 (first), alkaloid derivatives, 48 h
[24] = MCF7, Table 7 (first), alkaloid derivatives, 48 h
[25] = SW480, Table 7 (first), alkaloid derivatives, 48 h, read-out: IC50 SW-480
[26] = read-out: IC50 (μM), inhibitory activity on the Wnt signaling pathway

Compound: C=C1C(=O)[C@]23CC[C@H]1CC2[C@@]12CCC[C@@](C)(COC1=O)C2[C@H](CN1CCOCC1)C3=O (some centres unmarked) [Compound 9]
IC50 [1, 8]: 4.43 µM | IC50 [2, 9]: 3.53 µM | IC50 [3, 10]: 2.8 µM | IC50 [4, 11]: 3.55 µM | IC50 [5, 12]: 7.77 µM | IC50 [6, 7]: 8.56 ± 1.15 µM

Compound: C=C1C(=O)C23CC[C@H]1CC2[C@@]12CCC[C@@](C)(COC1=O)C2C[C@H]3OC(=O)c1ccc([N+](=O)[O-])cc1 (some centres unmarked) [Compound 1k]
IC50 [1, 13]: 0.86 µM | IC50 [2, 14]: 2.89 µM | IC50 [3, 15]: 1.05 µM | IC50 [4, 16]: 0.8 µM | IC50 [5, 17]: 0.69 µM | IC50 [6, 18]: 10.7 ± 0.39 µM

Compound: C=C1C(=O)C23CC[C@H]1CC2[C@@]12CCC[C@@](C)(COC1=O)C2C[C@H]3OC(=O)CCCl (some centres unmarked) [Compound 1h]
IC50 [1, 13]: 4.59 µM | IC50 [2, 14]: 3.5 µM | IC50 [3, 15]: 2.61 µM | IC50 [4, 16]: 2.7 µM | IC50 [5, 17]: 3.38 µM | IC50 [6, 18]: 20.2 ± 0.99 µM

Compound: C=C1C(=O)[C@]23CC[C@H]1CC2[C@@]12CCC[C@@]4(C)C(=O)N[C@@H]1O[C@@H]3CC24 (some centres unmarked) [Compound 84]
IC50 [1, 21]: 18.6 µM | IC50 [2, 22]: 15.7 µM | IC50 [3, 23]: 19 µM | IC50 [4, 24]: 15.7 µM | IC50 [5, 25]: 14.2 µM | IC50 [6, 26]: 60.6 ± 3.09 µM

Compound: C=C1C(=O)[C@]23CC[C@H]1CC2[C@@]12CCC[C@@]4(C)C5OCCN5C1O[C@@H]3CC42 (some centres unmarked) [Compound 77]
IC50 [1, 21]: 1.34 µM | IC50 [2, 22]: 1.04 µM | IC50 [3, 23]: 2.03 µM | IC50 [4, 24]: 0.67 µM | IC50 [5, 25]: 1.97 µM | IC50 [6, 26]: > 60 µM

Continued, values first:

IC50 ([1]; HL-60, 48 h, Table 5, derivatives having double Michael reaction acceptor): 0.51 µM | IC50 ([2]; SMMC-7721, 48 h, Table 5, derivatives having double Michael reaction acceptor): 0.26 µM | IC50 ([3]; A549, 48 h, Table 5, derivatives having double Michael reaction acceptor): 0.56 µM | IC50 ([4]; MCF7, 48 h, Table 5, derivatives having double Michael reaction acceptor): 0.53 µM | IC50 ([5]; SW480, 48 h, Table 5, derivatives having double Michael reaction acceptor, read-out: IC50 SW-480): 0.15 µM | IC50 ([5]; SW480, 48 h, Table 6, double Michael reaction acceptor derivatives, read-out: IC50 SW-480, derivatives having double Michael reaction acceptor): 0.65 µM | IC50 [6, 7]: 11.2 ± 1.54 µM
Compound: C=C1C(=O)C23CC[C@@H](CC2[C@]2(COS(C)(=O)=O)CCC[C@@](C)(COS(C)(=O)=O)C12)C(=C)C3=O (some centres unmarked) [Compound 74a]

IC50 [1, 8]: 4.9 µM | IC50 ([1]; HL-60, 48 h, Table 3, single Michael reaction acceptor, modified lactonic ring): 4.9 µM | IC50 [2, 9]: 4.62 µM | IC50 ([2]; SMMC-7721, 48 h, Table 3, single Michael reaction acceptor, modified lactonic ring): 4.62 µM | IC50 [3, 10]: 2.97 µM | IC50 ([3]; A549, 48 h, Table 3, single Michael reaction acceptor, modified lactonic ring): 2.97 µM | IC50 [4, 11]: 2.85 µM | IC50 ([4]; MCF7, 48 h, Table 3, single Michael reaction acceptor, modified lactonic ring): 2.85 µM | IC50 [5, 12]: 2.37 µM | IC50 ([5]; SW480, 48 h, Table 3, single Michael reaction acceptor, modified lactonic ring, read-out: IC50 SW-480): 2.37 µM | IC50 [5, 19]: 2.06 µM | IC50 [6, 20]: 9.12 ± 0.21 µM
Compound: C=C1C(=O)[C@]23CC[C@H]1CC2[C@@]12CCC[C@@](C)(COC1)C2CC3=O (some centres unmarked) [Compound 28]

IC50 ([1]; HL-60, 48 h, Table 4, derivatives obtained by reduction of the lactonic ring): 3.97 µM | IC50 ([2]; SMMC-7721, 48 h, Table 4, derivatives obtained by reduction of the lactonic ring): 0.77 µM | IC50 ([3]; A549, 48 h, Table 4, derivatives obtained by reduction of the lactonic ring): 2.89 µM | IC50 ([4]; MCF7, 48 h, Table 4, derivatives obtained by reduction of the lactonic ring): 2.36 µM | IC50 ([5]; SW480, 48 h, Table 4, derivatives obtained by reduction of the lactonic ring, read-out: IC50 SW-480): 2.57 µM | IC50 [5, 19]: 2.57 µM | IC50 [6, 20]: 43 ± 5.35 µM
Compound: C=C1C(=O)C23CC[C@H]1CC2[C@]1(COS(C)(=O)=O)CCC[C@@](C)(COS(C)(=O)=O)C1CC3=O (some centres unmarked) [Compound 73a]
